Test results from PMC11167782, “Tunlametinib (HL-085) plus vemurafenib in patients with advanced BRAF V600-mutant solid tumors: an open-label, single-arm, multicenter, phase I study” (Experimental Hematology & Oncology, 2024).

Assays:
patients = test system: patients; set-up: method as in PMID 21639808; details: phase III trial; cited from earlier work
CYP3A4 = test system: CYP3A4; set-up: method as in earlier work; details: cited from earlier work
[1] = Phase I study: plasma pharmacokinetics (UPLC-MS/MS); details: for AUC(0-t) / AUC / Cmax / Tmax: human, plasma; for AUC(0-t): AUClast; for AUC(0-t) / AUC / Cmax: mean (SD); for AUC: AUCtau
Description: PK assessments were performed using a validated ultra-performance liquid chromatography-tandem mass spectrometry method.
All samples analyzed within established storage stability periods.

BRAF V600-mutant NSCLC = details: monotherapy; cited from earlier work
BRAF V600-mutant PTC = test system: BRAF V600-mutant PTC; set-up: method as in PMID 35658604; details: monotherapy; cited from earlier work
[2] = Multiple dose, Tunlametinib 9mg BID + vemurafenib 720mg BID
[3] = Multiple dose, Tunlametinib 9mg BID + vemurafenib 960mg BID
[4] = Multiple dose, Tunlametinib 12mg BID + vemurafenib 720mg BID
[5] = Multiple dose, Tunlametinib 12mg BID + vemurafenib 960mg BID
[6] = Multiple dose, Vemurafenib 720mg BID Total
[7] = Multiple dose, Vemurafenib 960mg Total
[8] = Single dose, Tunlametinib 9mg BID + vemurafenib 720mg BID
[9] = Single dose, Tunlametinib 9mg BID + vemurafenib 960mg BID
[10] = Single dose, Tunlametinib 12mg BID + vemurafenib 720mg BID
[11] = Single dose, Tunlametinib 12mg BID + vemurafenib 960mg BID
[12] = 720 mg, Multiple dose, Vemurafenib 720mg BID Total
[13] = 720 mg, Single dose, Vemurafenib 720mg BID Total
[14] = 960 mg, Multiple dose, Vemurafenib 960mg Total
[15] = 960 mg, Single dose, Vemurafenib 960mg Total
[16] = vemurafenib, multiple administrations, across doses

CCCS(=O)(=O)Nc1ccc(F)c(C(=O)c2c[nH]c3ncc(-c4ccc(Cl)cc4)cc23)c1F [Vemurafenib, vemurafenib]
Incidence of photosensitivity (patients): 30% | Main metabolizing enzyme (CYP3A4): metabolized mainly by CYP3A4 | Cavg, mean (SD) [1, 2]: 29792.81 (1092.82) ng/mL | Fluctuation%, mean (SD) [1, 2]: 37.17 (4.45) % | RAUClast (accumulation ratio), mean (SD) [1, 2]: 11.76 (5.15) | RCmax (accumulation ratio), mean (SD) [1, 2]: 8.92 (3.76) | Cavg, mean (SD) [1, 3]: 47113.74 (NC) ng/mL | Fluctuation%, mean (SD) [1, 3]: 19.95 (NC) % | RAUClast (accumulation ratio), mean (SD) [1, 3]: 36.26 (58.5) | RCmax (accumulation ratio), mean (SD) [1, 3]: 16.01 (16.13) | Cavg, mean (SD) [1, 4]: 34081.99 (20393.59) ng/mL | Fluctuation%, mean (SD) [1, 4]: 36.48 (16.11) % | RAUClast (accumulation ratio), mean (SD) [1, 4]: 10.61 (4.88) | RAUCtau (accumulation ratio), mean (SD) [1, 4]: 13.29 (4.87) | RCmax (accumulation ratio), mean (SD) [1, 4]: 8.54 (4.03) | Cavg, mean (SD) [1, 5]: 28324.83 (NC) ng/mL | Fluctuation%, mean (SD) [1, 5]: 25.42 (NC) % | RAUClast (accumulation ratio), mean (SD) [1, 5]: 10.75 (2.55) | RCmax (accumulation ratio), mean (SD) [1, 5]: 8.23 (1.79) | Cavg, mean (SD) [1, 6]: 32652.26 (15958.81) ng/mL | Fluctuation%, mean (SD) [1, 6]: 36.71 (12.64) % | RAUClast (accumulation ratio), mean (SD) [1, 6]: 11.10 (4.84) | RAUCtau (accumulation ratio), mean (SD) [1, 6]: 13.29 (4.87) | RCmax (accumulation ratio), mean (SD) [1, 6]: 8.70 (3.77) | Cavg, mean (SD) [1, 7]: 45227.97 (17802.57) ng/mL | Fluctuation%, mean (SD) [1, 7]: 29.65 (16.23) % | RAUClast (accumulation ratio), mean (SD) [1, 7]: 23.92 (39.19) | RAUCtau (accumulation ratio), mean (SD) [1, 7]: 14.07 (NC) | RCmax (accumulation ratio), mean (SD) [1, 7]: 13.22 (11.54) | AUC_%Extrap, mean (SD) [1, 8]: 56.66 (6.57) % | AUC_%Extrap, mean (SD) [1, 9]: 57.98 (NC) % | AUC_%Extrap, mean (SD) [1, 10]: 61.30 (6.78) % | AUC_%Extrap, mean (SD) [1, 11]: 64.58 (NC) % | AUC_%Extrap, mean (SD) ([1]; Single dose, Vemurafenib 720mg BID Total): 60.37 (6.66) % | AUC_%Extrap, mean (SD) ([1]; Single dose, Vemurafenib 960mg Total): 61.29 (11.94) % | AUC(0-t) [1, 12]: 372 µg·h/mL | AUC(0-t) [1, 13]: 39.3 µg·h/mL | AUC [1, 12]: 392 µg·h/mL | AUC [1, 13]: 41 µg·h/mL | Cmax [1, 12]: 36600 ng/mL | Cmax [1, 13]: 4890 ng/mL | Tmax ([1]; 720 mg, Tmax, median (range), Multiple dose, Vemurafenib 720mg BID Total): 2.07 h | Tmax ([1]; 720 mg, Tmax, median (range), Single dose, Vemurafenib 720mg BID Total): 4 h | AUC(0-t) [1, 14]: 503 µg·h/mL | AUC(0-t) [1, 15]: 50.5 µg·h/mL | AUC [1, 14]: 543 µg·h/mL | AUC [1, 15]: 61.2 µg·h/mL | Cmax [1, 14]: 48300 ng/mL | Cmax [1, 15]: 6220 ng/mL | Tmax ([1]; 960 mg, Tmax, median (range), Multiple dose, Vemurafenib 960mg Total): 3.99 h | Tmax ([1]; 960 mg, Tmax, median (range), Single dose, Vemurafenib 960mg Total): 4.01 h | AUC(0-t) [1, 2]: 376 µg·h/mL | AUC(0-t) [1, 3]: 530 µg·h/mL | AUC(0-t) [1, 4]: 379 µg·h/mL | AUC(0-t) [1, 5]: 456 µg·h/mL | AUC(0-t) [1, 8]: 45.8 µg·h/mL | AUC(0-t) [1, 9]: 65.3 µg·h/mL | AUC(0-t) [1, 10]: 37.2 µg·h/mL | AUC(0-t) [1, 11]: 47.1 µg·h/mL | AUC [1, 2]: 358 µg·h/mL | AUC [1, 3]: 565 µg·h/mL | AUC [1, 4]: 409 µg·h/mL | AUC [1, 5]: 340 µg·h/mL | AUC [1, 8]: 55.2 µg·h/mL | AUC [1, 9]: 118 µg·h/mL | AUC [1, 10]: 38.2 µg·h/mL | AUC [1, 11]: 37.7 µg·h/mL | Cmax [1, 2]: 37400 ng/mL | Cmax [1, 3]: 49200 ng/mL | Cmax [1, 4]: 36800 ng/mL | Cmax [1, 5]: 42800 ng/mL | Cmax [1, 8]: 5710 ng/mL | Cmax [1, 9]: 7360 ng/mL | Cmax [1, 10]: 4610 ng/mL | Cmax [1, 11]: 5710 ng/mL | Tmax ([1]; Tmax, median (range), Multiple dose, Tunlametinib 9mg BID + vemurafenib 720mg BID): 3.92 h | Tmax ([1]; Tmax, median (range), Multiple dose, Tunlametinib 9mg BID + vemurafenib 960mg BID): 4.07 h | Tmax ([1]; Tmax, median (range), Multiple dose, Tunlametinib 12mg BID + vemurafenib 720mg BID): 1.93 h | Tmax ([1]; Tmax, median (range), Multiple dose, Tunlametinib 12mg BID + vemurafenib 960mg BID): 3.95 h | Tmax ([1]; Tmax, median (range), Single dose, Tunlametinib 9mg BID + vemurafenib 720mg BID): 4 h | Tmax ([1]; Tmax, median (range), Single dose, Tunlametinib 9mg BID + vemurafenib 960mg BID): 3.96 h | Tmax ([1]; Tmax, median (range), Single dose, Tunlametinib 12mg BID + vemurafenib 720mg BID): 4 h | Tmax ([1]; Tmax, median (range), Single dose, Tunlametinib 12mg BID + vemurafenib 960mg BID): 4.07 h | Tmax ([1]; oral, Median Tmax, vemurafenib, single-dose): ~4 h | Average accumulation ratio based on AUClast [1, 16]: 10.6 to 36.3 | Average accumulation ratio based on AUCtau [1, 16]: 13.3 to 14.1 | Average accumulation ratio based on Cmax [1, 16]: 8.2 to 16.0

CC(C)(C)c1nc(-c2cccc(NS(=O)(=O)c3c(F)cccc3F)c2F)c(-c2ccnc(N)n2)s1 [dabrafenib]
Median PFS (BRAF V600-mutant NSCLC): 5.5 months | ORR (BRAF V600-mutant NSCLC): 33% | ORR (BRAF V600-mutant PTC): 35%
